One data set concerns the target T1, FH-hGlyT2; human GlyT2 (Homo sapiens, UniProt Q9Y345).
T1 sequence (Q9Y345 1-797): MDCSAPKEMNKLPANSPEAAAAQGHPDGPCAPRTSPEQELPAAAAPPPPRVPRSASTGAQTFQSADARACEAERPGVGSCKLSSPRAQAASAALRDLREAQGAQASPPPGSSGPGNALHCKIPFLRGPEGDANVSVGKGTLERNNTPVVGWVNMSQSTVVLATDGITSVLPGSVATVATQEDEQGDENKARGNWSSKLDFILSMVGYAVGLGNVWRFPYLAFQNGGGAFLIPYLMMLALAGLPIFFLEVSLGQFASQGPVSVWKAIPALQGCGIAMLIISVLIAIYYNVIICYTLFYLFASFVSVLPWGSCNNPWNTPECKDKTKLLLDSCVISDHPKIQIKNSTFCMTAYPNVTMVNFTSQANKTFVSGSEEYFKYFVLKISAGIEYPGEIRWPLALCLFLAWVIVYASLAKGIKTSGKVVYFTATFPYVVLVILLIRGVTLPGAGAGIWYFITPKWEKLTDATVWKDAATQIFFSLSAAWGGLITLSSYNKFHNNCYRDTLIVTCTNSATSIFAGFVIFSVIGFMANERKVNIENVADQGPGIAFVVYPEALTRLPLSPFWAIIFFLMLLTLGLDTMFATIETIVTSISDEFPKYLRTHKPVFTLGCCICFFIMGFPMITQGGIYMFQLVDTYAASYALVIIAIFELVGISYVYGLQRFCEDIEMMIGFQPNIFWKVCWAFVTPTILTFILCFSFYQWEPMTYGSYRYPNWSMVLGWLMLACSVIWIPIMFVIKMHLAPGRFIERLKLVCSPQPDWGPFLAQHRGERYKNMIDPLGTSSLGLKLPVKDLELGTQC
Briefly: glycine uptake inhibition in PAE cells. The data set is classed as cell-based.

Substrate in data set [1]: NCC(=O)O
Briefly: glycine uptake in PAE cells. The data set is classed as cell-based, Homo sapiens.

The term IC50 denotes the midpoint of a concentration-inhibition curve. A low value points to greater potency. The term Km denotes the concentration of substrate that gives half-maximal velocity.

With `N[C@@H](COC(c1cccc(F)c1)c1ccccc1OCc1ccccc1)C(=O)O` (stereo partly drawn) [ALX1393, reference compound], the IC50 on FH-hGlyT2; human GlyT2 (pH 7.5, 10 min uptake) was determined as 26 ± 3 nM.

As for `CN(CC[C@@H](Oc1ccc(-c2ccccc2)cc1)c1ccc(F)cc1)CC(=O)O` [ALX5407, reference compound], 1800 nM corresponded to half-maximal inhibition on FH-hGlyT2; human GlyT2 (slow rate of inhibition, data not shown) (IC50).

As for `O=c1[nH]c2c(c(=O)[nH]1)CCN(Cc1ccccc1)C2` [Lead 3], inhibition at FH-hGlyT2; human GlyT2 (pH 7.5, 10 min uptake) was half-maximal at 33200 nM (IC50).

On FH-hGlyT2; human GlyT2 (pH 7.5, 10 min uptake), `O=C(O)CCCCSc1ncnc2[nH]c(=O)[nH]c12` [ZINC6865169] came in with a half-maximal inhibitory concentration (IC50) of 518 ± 66 nM.

Regarding `O=C(O)CCSc1[nH]c(=O)nc2[nH]c(=O)[nH]c12` [compound 1, ZINC6620309], at FH-hGlyT2; human GlyT2 (pH 7.5, 10 min uptake), the IC50 worked out at 478 ± 28 nM.

B1: FH-hGlyT2; human GlyT2 (Homo sapiens) (protein)
chain: T1 sequence (Q9Y345 1-797)
B1: the Km in data set [1] is reported as 123 µM.

(Values after paper doi:10.1101/510487v2 (biorxiv, 2019).)
